Reference: patent US8664397B2, “Pyrrolopyridine-2-carboxylic acid amide derivative useful as inhibitor of glycogen phosphorylase” (Prosidion Limited, priority 2004, dated 2014)

Key:
[1] = target: T1, Rabbit muscle glycogen phosphorylase a (Oryctolagus cuniculus, UniProt P00489); assay: Glycogen phosphorylase assay in vitro (reverse direction, malachite green phosphate detection); assay type: biochemical; details: 50 mM Hepes pH 7.2, 7.5 mM glucose, 0.5 mM glucose-1-phosphate, 1 mg/mL glycogen, 30° C. for 30 min
T1 construct: purchased Sigma P1261; host or cells: rabbit muscle
T1 sequence (P00489 2-843 limits assumed): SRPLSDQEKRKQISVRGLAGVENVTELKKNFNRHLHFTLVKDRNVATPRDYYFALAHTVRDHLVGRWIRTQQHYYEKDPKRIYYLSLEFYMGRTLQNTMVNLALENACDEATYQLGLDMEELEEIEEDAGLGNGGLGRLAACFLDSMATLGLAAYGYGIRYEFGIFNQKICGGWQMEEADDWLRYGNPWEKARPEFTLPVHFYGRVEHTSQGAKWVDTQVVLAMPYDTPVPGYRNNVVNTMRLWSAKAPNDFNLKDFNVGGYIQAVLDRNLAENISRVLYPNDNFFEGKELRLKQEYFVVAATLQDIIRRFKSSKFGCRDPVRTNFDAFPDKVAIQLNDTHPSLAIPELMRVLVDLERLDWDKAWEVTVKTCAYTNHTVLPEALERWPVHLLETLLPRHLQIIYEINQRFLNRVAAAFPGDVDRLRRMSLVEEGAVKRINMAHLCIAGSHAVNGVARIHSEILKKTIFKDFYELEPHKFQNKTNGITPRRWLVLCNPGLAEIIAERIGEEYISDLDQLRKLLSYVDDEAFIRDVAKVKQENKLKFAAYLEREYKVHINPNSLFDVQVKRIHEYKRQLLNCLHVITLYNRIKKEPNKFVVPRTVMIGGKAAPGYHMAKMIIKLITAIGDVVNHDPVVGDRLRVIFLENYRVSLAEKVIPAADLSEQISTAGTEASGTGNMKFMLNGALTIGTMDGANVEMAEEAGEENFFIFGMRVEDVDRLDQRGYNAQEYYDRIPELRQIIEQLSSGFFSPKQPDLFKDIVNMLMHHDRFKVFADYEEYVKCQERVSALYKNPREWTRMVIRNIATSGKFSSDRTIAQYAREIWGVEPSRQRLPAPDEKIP
From the text: α-D-Glucose-1-phosphate (disodium salt), Glycogen, D-Glucose, Malachite Green Hydrochloride, Ammonium Molybdate tetrahydrate, BSA, HEPES and rabbit muscle phosphorylase a (P1261) were purchased from Sigma. All other reagents were analytical grade.
An assay for glycogen phosphorylase activity in the reverse direction was developed based on the method described by Engers et al., Can. J. Biochem., 1970, 48, 746-754]. Rabbit muscle glycogen phosphorylase a (Sigma) was reconstituted at a stock concentration of 100 μg/mL in 25 mM Tris/HCl. […] in a 96-well plate in a final volume of 100 μL containing 50 mM Hepes pH 7.2, 7.5 mM glucose, 0.5 mM glucose-1-phosphate and 1 mg/mL glycogen. After incubation at 30° C. for 30 min, the inorganic phosphate released from glucose-1-phosphate was measured by the addition of 150 μL of malachite green/molybdate solution prepared as follows: 5 mL of 4.2% ammonium molybdate in 4N HCl, 15 mL of 0.045% malachite green, 50 μL of Tween 20. Following a 30 min incubation at room temperature, the absorbance was measured at 620 nm. For IC50 determination, 10 μL of a serial dilution of compound (100 μM to 0.004 μM) in DMSO was added to each reaction in duplicate with the equivalent concentration of DMSO added to the control uninhibited reaction. Dose response curves were then obtained by plotting % inhibition versus log10 compound concentration. […]

[2] = thermogravimetric method, nitrogen flow, 5° C./min heating rate
Procedure: Thermogravimetric analysis was performed as follows: A sample of the material (ca. 4-5 mg) was heated in a platinum vessel using slow inert gas (nitrogen) flow with 5° C./min heating rate using Derivatograph C instrument.
Thermal stability data on the product of Example 1 were obtained by the thermogravimetric method described above.

SMILES	IC50 [1]	Thermal stability (temperature below which the substance appeared to be stable) [2]
O=C(N[C@@H](Cc1ccc(F)cc1)C(=O)N1CCC(O)CC1)c1cc2cc(Cl)ncc2[nH]1 [Formula (I), 5-chloro-1H-pyrrolo[2,3-c]pyridine-2-carboxylic acid [1-(S)-(4-fluorobenzyl)-2-(4-hydroxypiperidin-1-yl)-2-oxoethyl]amide]	< 1000 µM	
Cl.O=C(N[C@@H](Cc1ccc(F)cc1)C(=O)N1CCC(O)CC1)c1cc2cc(Cl)ncc2[nH]1 [Example 1]		below 190 °C
